Results taken from patent US8703815B2, “Small molecules that covalently modify transthyretin” (The Scripps Research Institute, priority 2009, dated 2014).
Where two headings read alike, the source gives them in different places.

Tests used:
K15A-TTR [1] = molecular target: T1, K15A-TTR (Homo sapiens, UniProt P02766, K35A); test: Fluorimetric assay with recombinant K15A-TTR; type: binding; conditions: 24 hour incubation
T1 construct: composed of 127-residue β-sheet-rich subunits; made in house
Method: [The source words this procedure for another variant and says it was used here with some conditions changed.] The excitation spectra are shown with dotted traces (λmax=328 nm), and emission spectra are adjacently (λmax=384 nm). Very low fluorescence resulted from 328 nm excitation of stilbene Compounds 4 or 2 alone in buffer (FIGS. 4A and 4B; traces substantially on the X-axis).
WT-TTR was expressed in an E. coli expression system and purified as described previously. [Lashuel et al., Biochemistry 1999, 38, 13560-13573] The covalent TTR modifiers (A1 or A2) or the non-covalent TTR ligand B2 (5 μL of a 1.44 mM solution in DMSO, final concentration: 7.2 μM) were added to 1 mL of a solution of WT-TTR homotetramer (0.2 mg/mL, 3.6 μM) in 10 mM phosphate, 100 mM KCl and 1 mM EDTA (pH 7.0 phosphate buffer) in a 2 mL Eppendorf tube. The samples were vortexed, and incubated for 18 h at 25° C. The fluorescence changes were monitored using a Varian Cary 50 spectrofluorometer at 20° C. in a 1 cm path length quartz cell. The excitation slit was set at 5 nm and the emission slit was set at […]. The samples were excited at 328 nm and the emission spectra were collected from 350 to 550 nm.
WT-TTR was expressed and purified from an E. coli expression system as described previously. [Lashuel et al., Biochemistry 1999, 38:13560]. The covalent modifiers (Compounds 4 or 2) or the non-covalent TTR ligand Compound B2 (5 μL of a 1.44 mM solution in DMSO) were added to 1 mL of a solution of WT-TTR (0.2 mg/mL, 3.6 μM) in 10 mM phosphate, 100 mM KCl and 1 mM EDTA (pH 7.0) in a 2 mL Eppendorf tube. The samples were vortexed, and incubated for 18 hours at 25° C. The fluorescence changes were monitored using a Varian Cary 50 spectrofluorometer at 20° C. in a 1 cm path length quartz cell. The excitation slits was set at 5 nm and the emission slits was set at […]. The samples were excited at 328 nm and the emission spectra were collected from 330 to 550 nm (FIG. 4). The time-dependent fluorescence changes were monitored in similar manner (FIG. 5).

WT-TTR [2] = molecular target: T2, WT-TTR (Homo sapiens, UniProt P02766); test: Fluorimetric assay with recombinant WT-TTR; type: binding
T2 construct: composed of 127-residue β-sheet-rich subunits; made in house; host or cells: E. coli
Method: WT-TTR was expressed in an E. coli expression system and purified as described previously. […] The samples were vortexed, and incubated for 18 h at 25° C. […] The excitation slit was set at 5 nm and the emission slit was set at […]. The samples were excited at 328 nm and the emission spectra were collected from 350 to 550 nm. WT-TTR was expressed and purified from an E. coli expression system as described previously. [Lashuel et al., Biochemistry 1999, 38:13560]. […] The samples were vortexed, and incubated for 18 hours at 25° C. […] The excitation slits was set at 5 nm and the emission slits was set at […]. The samples were excited at 328 nm and the emission spectra were collected from 330 to 550 nm (FIG. 4). The time-dependent fluorescence changes were monitored in similar manner (FIG. 5).

K15A-TTR [3] = molecular target: T1, K15A-TTR; test: RP-HPLC analysis of reaction with K15A-TTR homotetramer; type: binding
Description: A strictly analogous study performed with the K15A homotetrameric TTR mutant confirmed that K15 was essential for the observed chemoselective reaction between TTR and Compounds […] (FIG. 1A, bottom trace). […] However, it is important to note that Compounds 1-3 were only slightly less chemoselective (<5% reaction with K15A).
The ability of compounds A1 and A2, auxochromic analogs of previously discussed stilbenes [Klabunde et al., Nat. Struct. Biol. 2000, 7, 312-321; Connelly et al., Curr. Opin. Struc. Biol. 2010, 20, 54-62; Johnson et al., J. Med. Chem. 2008, 51, 6348-6358; Choi et al., J. Am. Chem. Soc. 2010, 132, 1359-1370; Choi et al., Nat. Chem. Biol. 2010, 6, 133-139; and Baures et al., Bioorg. Med. Chem. 1998, 6, 1389-1401] to form a chemoselective amide bond with the K15 residue of TTR was assessed by reverse-phase-HPLC and liquid chromatography-mass spectrometry analysis. […] The binding of the covalent modifier A2 to K15A-TTR (in the absence of amide bond conjugation) was confirmed by incubating A2 with K15A-TTR in phosphate buffer (pH 7) followed by K15A immunoisolation using a Sepharose® resin-conjugated anti-TTR polyclonal antibody [Purkey et al., Proc. Natl. Acad. Sci. U.S.A. 2001, 98, 5566-5571].
Recombinant WT-TTR was expressed as described previously [Lashuel et al., Biochemistry 38:13560-13573 (1999)]. For analysis of test compounds with TTR, each compound (1.5 μL in DMSO, 1.44 mM) was added to 300 μL of WT-TTR or K15A mutant TTR (3.6 μM, 10 mM sodium phosphate, 100 mM KCl, 1 mM EDTA, pH 7.0). The samples were vortexed, and incubated for 18 hours at 25° C. Reverse phase high performance liquid chromatography (RP-HPLC) was performed on a Water 600 E multi-solvent delivery system, using a Waters 486 tunable absorbance detector, a 717 autosampler, and a ThermoHypersil Keystone Betabasic-18 column μ150 Å pore size, 3 μm particle size, and mobile phase A; 0.1% TFA in 95% H2O+5% CH3CN and mobile phase B, 0.1% TFA in 95% CH3CN+5% H2O). Linear gradients were run from 100:0 to 0:100 A:B for 27 minutes.

V30M-TTR = molecular target: T3, V30M-TTR (Homo sapiens, UniProt P02766, V50M); test: Acid-mediated V30M-TTR fibril formation assay (turbidity at 400 nm); type: biochemical; conditions: pH 4.4, 72 hours, 37° C.; for % Fibril Formation 7.2 μM (V30M-TTR): compound 7.2 μM; for % Fibril Formation […] (V30M-TTR): compound […]
T3 construct: composed of 127-residue β-sheet-rich subunits; made in house
Method: Compounds (5 μL of 1.44 mM solution in DMSO) were added to 495 μL of TTR (7.2 μM, in 10 mM sodium phosphate, 100 mM KCl, 1 mM EDTA, pH 7.0). The mixtures were vortexed and incubated (maintained) for 18 hours at 25° C. […] The solutions were vortexed to evenly distribute any precipitate, and turbidity was measured at 400 nm using a Hewlett Packard model 8453 UV-VIS Spectrophotometer.

WT-TTR [4] = molecular target: T2, WT-TTR; test: Acid-mediated WT-TTR fibril formation assay (turbidity at 400 nm); type: biochemical; conditions: for IC50: % fibril formation after 72 hours, read-out: IC50 (apparent), inhibition of WT-TTR amyloidogenesis; for % Fibril Formation 7.2 μM (WT-TTR): compound 7.2 μM; for % Fibril Formation 7.2 μM (WT-TTR) / % Fibril Formation […] (WT-TTR): pH 4.4, 72 hours, 37° C.; for % Fibril Formation […] (WT-TTR): compound […]
Method: The mixtures were vortexed and incubated (maintained) for 18 hours at 25° C.

[5] = molecular target: T4, TTR in human blood plasma (Homo sapiens, UniProt P02766); test: Modification of TTR in human blood plasma (immunocapture, RP-HPLC); type: binding; conditions: compound 10.8 μM, 24 hours, 37° C.; maximum 50%
T4 construct: RP-HPLC analysis of TTR captured from human plasma; from tissue; host or cells: human blood plasma
Method: Compounds 1-4 (10.8 μM) were incubated for 24 hours at 37° C. with human plasma, wherein the TTR concentration is 3.6-5.4 μM.
Furthermore, compound A2 was evaluated to determine its ability to bind selectively to and then react chemoselectively with TTR over the 4000+ other proteins in human blood plasma. Compound A2 (10.8 μM) was incubated with human blood plasma (TTR concentration is 3.6-5.4 μM) for 24 hours at 37° C. before immunoisolating human TTR using a Sepharose® resin-conjugated anti-TTR polyclonal antibody [Purkey et al., Proc. Natl. Acad. Sci. U.S.A. 2001, 98, 5566-5571].
The modification ratio of TTR by kinetic stabilizers in human plasma was evaluated as described [Purkey et al., Proc. Natl. Acad. Sci. U.S.A. 98:5566-5571 (2001)] with minor modifications. Briefly, compounds (7.5 μL of 1.44 mM solution in DMSO) were added to 1 mL of human plasma and incubated at 37° C. for 24 hours on a rocker (30 rpm). A 1:1 (v/v) slurry of unfunctionalized Sepharose® resin in 10 mM Tris, 140 mM NaCl, pH 8.0 (TSA) was added and the solutions were incubated for 1 hour at 4° C. on a rocker plate, followed by brief centrifugation.
Two 400 μL aliquots of the supernatants were added to 300 μL of 1:1 (v:v) slurry of anti-TTR antibody-conjugated Sepharose® resin in TSA. The solutions were gently rocked at 4° C. for 20 minutes (30 rpm), centrifuged, and supernatants were removed. The resin was washed by shaking for 1 minute in 1 mL of TSA solution containing 0.05% saponin (three times) and then 1 mL of TSA solution (twice). The TTR and bound test compound were dissociated from the resin by adding 155 μL of triethylamine (100 mM, pH 11.5) and vortexing for 1 minute. After centrifugation, 135 μL of solution containing test compound and TTR was analyzed by RP-HPLC as described above except that the linear gradients were run from 100:0 to 0:100 A:B for 45 minutes.

Row | reaction with K15A-TTR (in words) (K15A-TTR [3]) | % Fibril Formation 7.2 μM (V30M-TTR) (V30M-TTR) | % Fibril Formation […] (V30M-TTR) (V30M-TTR) | IC50 (WT-TTR [4]; WT-TTR 3.6 μM) | % Fibril Formation 7.2 μM (WT-TTR) (WT-TTR [4]; WT-TTR […]) | % Fibril Formation […] (WT-TTR) (WT-TTR [4]; WT-TTR […]) | % Modification of TTR subunits in Human Blood Plasma [5] | SMILES | also measured
1 | – | – | – | – | – | – | – | CCCNC(=O)c1cccc(/C=C/c2cc(C)c(O)c(C)c2)c1 [Compound B1, (E)-3-(4-hydroxy-3,5-dimethylstyryl)-N-propylbenzamide] | increase in fluorescence intensity upon binding to K15A-TTR (K15A-TTR [1]): about 190 fold; time for binding to WT-TTR (WT-TTR [2]): ≤ 1 min; increase in fluorescence intensity with WT-TTR vs compound alone in buffer (WT-TTR [2]; WT-TTR […], compound 7.2 μM, 24 hours): about 400 fold; increase in fluorescence intensity with WT-TTR within 1 minute vs compound alone in buffer (WT-TTR [2]; time-dependent emission spectra): about 360 fold
2 | no conjugation | – | – | – | – | – | – | Cc1cc(/C=C/c2cc(C(=O)Oc3ccc(F)cc3)cc(N(C)C)c2)cc(C)c1O [Compound A1, (E)-4-fluorophenyl 3-(dimethylamino)-5-(4-hydroxy-3,5-dimethylstyryl)benzoate] | fluorescence after incubation with WT-TTR (in words) (WT-TTR [2]; phosphate buffer pH 7, 18 hours): bright blue fluorescence
3 | – | 3% | 33% | 1.96 to 2.26 µM | 4% | 21% | 49% (±0.7%) | Cc1cc(/C=C/c2cccc(C(=O)Oc3ccccc3[N+](=O)[O-])c2)cc(C)c1O [Compound 3, (E)-2-nitrophenyl 3-(4-hydroxy-3,5-dimethylstyryl)benzoate] | –
4 | more non-chemoselective conjugation | – | – | – | – | – | – | Cc1cc(/C=C/c2ccc(C(=O)Oc3ccccc3[N+](=O)[O-])cc2)cc(C)c1O [Compound 6] | –
5 | – | 3% | 17% | 1.96 to 2.26 µM | 2% | 12% | 36% (±0.4%) | O=C(Sc1ccccc1)c1cccc(/C=C/c2cc(Br)c(O)c(Br)c2)c1 [Compound 1, (E)-S-phenyl 3-(3,5-dibromo-4-hydroxystyryl)benzothioate] | IC50 (WT-TTR [4]; WT-TTR […]): 2 µM
